According to PubChem BioAssay AID1259411 (Chemical Carcinogenesis Research Information System (CCRIS), 2018):
Active and inactive are the calls of the source. How the calls were made is not given here.

Test system: rodent carcinogenicity bioassays, tumor incidence
Assay: CCRIS carcinogenicity studies
Outline: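 Archive of carcinogenicity, mutagenicity, tumor promotion and tumor inhibition results drawn from journals, NCI reports and other sources, expert-reviewed; covers 1985-2011 and is no longer updated.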

CN(C)NC(=O)CCC(=O)O
carcinogen call (Species: MOUSE, Strain/Sex: B6C3F1/FEMALE, Route: ORAL, Dose: 0, 5000, 10000 PPM IN DIET FOR 104 WK (STUDY DURATION: 105 WK), Dose: 0, 5000, 10000 PPM IN DIET FOR 104 WK (STUDY DURATION: 105 WK)): inactive; negative
carcinogen call (Species: MOUSE, Strain/Sex: B6C3F1/MALE, Route: ORAL, Dose: 0, 5000, 10000 PPM IN DIET FOR 104 WK (STUDY DURATION: 105 WK), Dose: 0, 5000, 10000 PPM IN DIET FOR 104 WK (STUDY DURATION: 105 WK), Tumor Site: Type of Lesion: LIVER: HEPATOCELLULAR CARCINOMA): equivocal
carcinogen call (Species: Mouse, Strain/Sex: CD-1/Female (50/group), Route: Oral, Dose: 0, 300, 3,000, 6,000, 10,000 ppm in diet for 2 yr, Dose: 0, 300, 3,000, 6,000, 10,000 ppm in diet for 2 yr, Tumor Site: Type of Lesion: Uterus: at 10,000 ppm): equivocal
carcinogen call (Species: Mouse, Strain/Sex: CD-1/Male (50/group), Route: Oral, Dose: 0, 300, 3,000, 6,000, 10,000 ppm in diet for 2 yr, Dose: 0, 300, 3,000, 6,000, 10,000 ppm in diet for 2 yr, Tumor Site: Type of Lesion: Vascular tumor: hemangioma and hemangiosarcoma in liver at 10,000 ppm): equivocal
carcinogen call (Species: Mouse, Strain/Sex: Swiss/Male and Female (100/group in controls; 50/group in treated group), Route: Oral, Dose: 0, 2% in drinking water (3000 mg/kg/day), 0.003% UDMH (40 ppm impurity) for 2 yr, Dose: 0, 2% in drinking water (3000 mg/kg/day), 0.003% UDMH (40 ppm impurity) for 2 yr, Tumor Site: Type of Lesion: Lung: adenomas and adenocarcinomas Vascular tumor: hemangioma and hemangiosarcoma predominantly in liver): equivocal, incidence of lung tumors may be from udmh.
carcinogen call (Species: RAT, Strain/Sex: F344/FEMALE, Route: ORAL, Dose: 0, 5000, 10000 PPM IN DIET FOR 104 WK (STUDY DURATION: 105 WK), Dose: 0, 5000, 10000 PPM IN DIET FOR 104 WK (STUDY DURATION: 105 WK), Tumor Site: Type of Lesion: ENDOMETRIUM: ADENOCARCINOMA, UTERUS: LEIOMYOSARCOMA): active; positive
carcinogen call (Species: RAT, Strain/Sex: F344/MALE, Route: ORAL, Dose: 0, 5000, 10000 PPM IN DIET FOR 104 WK (STUDY DURATION: 105 WK), Dose: 0, 5000, 10000 PPM IN DIET FOR 104 WK (STUDY DURATION: 105 WK)): inactive; negative
carcinogen call (Species: Rat, Strain/Sex: Fischer 344/Female (50/group), Route: Oral, Dose: 0, 1, 50, 100 ppm in diet for 2 yr, Dose: 0, 1, 50, 100 ppm in diet for 2 yr, Tumor Site: Type of Lesion: Liver: increase at 50 and 100 ppm (incidence not reported by CADPR) Uterus: Adenocarcinoma (0, 0, 0, 2)): equivocal, ca dpr described results as providing marginal evidence of treatment
carcinogen call (Species: Rat, Strain/Sex: Fischer 344/Female (50/group), Route: Oral, Dose: 0, 100, 500, 5,000, 10,000 ppm in diet for 2 yr, Dose: 0, 100, 500, 5,000, 10,000 ppm in diet for 2 yr, Tumor Site: Type of Lesion: Uterus: Adenocarcinoma (0, 1, 2, 1, 1), Leiomyocarcinoma (0, 0, 0, 2, 1)): equivocal, ca dpr noted rarity of the tumors but that mtd not achieved
carcinogen call (Species: Rat, Strain/Sex: Fischer 344/Male (50/group), Route: Oral, Dose: 0, 100, 500, 5,000, 10,000 ppm in diet for 2 yr, Dose: 0, 100, 500, 5,000, 10,000 ppm in diet for 2 yr): inactive; negative

COc1cccc2c1cc([N+](=O)[O-])c1c(C(=O)O)cc3c(c12)OCO3 (tested in a mixture with another compound)
carcinogen call (Species: RAT, Strain/Sex: WISTAR/FEMALE, Route: GAVAGE, Dose: 0.1, 1.0, 10 MG/KG/D, 7 D/WK FOR 3 MO (LOW DOSE ALSO GIVEN FOR 6 OR 12 MO), Dose: 0.1, 1.0, 10 MG/KG/D, 7 D/WK FOR 3 MO (LOW DOSE ALSO GIVEN FOR 6 OR 12 MO), Tumor Site: Type of Lesion: FORESTOMACH: PAPILLOMA, CARCINOMA): active; positive
carcinogen call (Species: RAT, Strain/Sex: WISTAR/MALE, Route: GAVAGE, Dose: 0.1, 1.0, 10 MG/KG/D, 7 D/WK FOR 3 MO (LOW DOSE ALSO GIVEN FOR 6 OR 12 MO), Dose: 0.1, 1.0, 10 MG/KG/D, 7 D/WK FOR 3 MO (LOW DOSE ALSO GIVEN FOR 6 OR 12 MO), Tumor Site: Type of Lesion: FORESTOMACH: PAPILLOMA, CARCINOMA, URINARY BLADDER: PAPILLOMA, CARCINOMA, KIDNEY: CARCINOMA, Tumor Site: Type of Lesion: FORESTOMACH: PAPILLOMA, CARCINOMA, URINARY BLADDER: PAPILLOMA, CARCINOMA, KIDNEY: CARCINOMA): active; positive

Clc1cccc(-c2cc(Cl)cc(Cl)c2)c1
carcinogen call (Species: RAT, Strain/Sex: SPRAGUE-DAWLEY/FEMALE, Route: ORAL, Dose: 0, 50, 100, 200 PPM IN DIET FOR THE DURATION OF STUDY (STUDY DURATION: 24 MO), Dose: 0, 50, 100, 200 PPM IN DIET FOR THE DURATION OF STUDY (STUDY DURATION: 24 MO), Tumor Site: Type of Lesion: LIVER: TUMOR): active; positive
carcinogen call (Species: RAT, Strain/Sex: SPRAGUE-DAWLEY/MALE, Route: ORAL, Dose: 0, 50, 100, 200 PPM IN DIET FOR THE DURATION OF STUDY (STUDY DURATION: 24 MO), Dose: 0, 50, 100, 200 PPM IN DIET FOR THE DURATION OF STUDY (STUDY DURATION: 24 MO)): inactive; negative

O=C(O)CNCP(=O)(O)O
carcinogen call (Species: RAT, Strain/Sex: WISTAR/FEMALE, Route: ORAL, Dose: 0, 300, 900, 2700 MG/L IN DRINKING WATER FOR 2 YR (STUDY DURATION: 2 YR), Dose: 0, 300, 900, 2700 MG/L IN DRINKING WATER FOR 2 YR (STUDY DURATION: 2 YR)): inactive; negative
carcinogen call (Species: RAT, Strain/Sex: WISTAR/MALE, Route: ORAL, Dose: 0, 300, 900, 2700 MG/L IN DRINKING WATER FOR 2 YR (STUDY DURATION: 2 YR), Dose: 0, 300, 900, 2700 MG/L IN DRINKING WATER FOR 2 YR (STUDY DURATION: 2 YR)): inactive; negative
carcinogen call (Species: Rat, Strain/Sex: Sprague-Dawley/Female (50/Group), Route: Oral, Dose: 0, 2000, 8000, 20,000 ppm of 96.5% glyphosate, isopropylamine salt in diet for 24 mo, study duration 24 mo, Dose: 0, 2000, 8000, 20,000 ppm of 96.5% glyphosate, isopropylamine salt in diet for 24 mo, study duration 24 mo, Tumor Site: Type of Lesion: Adrenal cortex: carcinoma (3/50 in high dose group vs 0 in all other groups)): active; positive. (department of pesticides regulation reviewer describes as a possible
carcinogen call (Species: Rat, Strain/Sex: Sprague-Dawley/Male (50/Group), Route: Oral, Dose: 0, 2000, 8000, 20,000 ppm of 96.5% glyphosate, isopropylamine salt in diet for 24 mo, study duration 24 mo, Dose: 0, 2000, 8000, 20,000 ppm of 96.5% glyphosate, isopropylamine salt in diet for 24 mo, study duration 24 mo): inactive; negative

CC(C)(C)c1cc(O)c(C(C)(C)C)cc1O
carcinogen call (Species: HAMSTER, Strain/Sex: SYRIAN/MALE, Route: ORAL, Dose: 1% IN DIET FOR 24 WK (STUDY DURATION: 24 WK), Tumor Site: Type of Lesion: FORESTOMACH: PAPILLOMA): active; positive

Cc1cc(-c2ccc(N)c(C)c2)ccc1N
carcinogen call (Species: MOUSE, Strain/Sex: BALB/FEMALE, Route: ORAL, Dose: 0, 5, 9, 18, 35, 70, 140 PPM IN DRINKING WATER 7 D/WK FOR DURATION OF STUDY (STUDY DURATION: 112 WK), Dose: 0, 5, 9, 18, 35, 70, 140 PPM IN DRINKING WATER 7 D/WK FOR DURATION OF STUDY (STUDY DURATION: 112 WK)): inactive; negative
carcinogen call (Species: MOUSE, Strain/Sex: BALB/MALE, Route: ORAL, Dose: 0, 5, 9, 18, 35, 70, 140 PPM IN DRINKING WATER 7 D/WK FOR DURATION OF STUDY (STUDY DURATION: 112 WK), Dose: 0, 5, 9, 18, 35, 70, 140 PPM IN DRINKING WATER 7 D/WK FOR DURATION OF STUDY (STUDY DURATION: 112 WK), Tumor Site: Type of Lesion: LUNG: ALVEOLAR CELL ADENOMA AND ADENOCARCINOMA): active; positive
carcinogen call (Species: RAT, Route: SUBCUTANEOUS, Tumor Site: Type of Lesion: EAR (ZYMBAL GLAND)): active; positive
carcinogen call (Species: RAT, Strain/Sex: F344/FEMALE, Route: ORAL, Dose: 0, 30, 70, 150 PPM IN DRINKING WATER 7 D/WK FOR 60-61 WK (STUDY DURATION: 60-61 WK), Dose: 0, 30, 70, 150 PPM IN DRINKING WATER 7 D/WK FOR 60-61 WK (STUDY DURATION: 60-61 WK)): active; positive
carcinogen call (Species: RAT, Strain/Sex: F344/MALE, Route: ORAL, Dose: 0, 30, 70, 150 PPM IN DRINKING WATER 7 D/WK FOR 60-61 WK (STUDY DURATION: 60-61 WK), Dose: 0, 30, 70, 150 PPM IN DRINKING WATER 7 D/WK FOR 60-61 WK (STUDY DURATION: 60-61 WK), Tumor Site: Type of Lesion: PREPUTIAL GLAND: ADENOMA, ADENOMA OR CARCINOMA, LARGE INTESTINE: ADENOMATOUS POLYP, ADENOCARCINOMA, SMALL INTESTINE: ADE, Tumor Site: Type of Lesion: PREPUTIAL GLAND: ADENOMA, ADENOMA OR CARCINOMA, LARGE INTESTINE: ADENOMATOUS POLYP, ADENOCARCINOMA, SMALL INTESTINE: ADE): active; positive
